Reference: ChEMBL document CHEMBL1201861, “Genomics of Drug Sensitity in Cancer screening data, Wellcome Trust Sanger Institute”

Tests used:
Assay in all cases: cells
NOS-1 = format: functional, cell-based, Homo sapiens; conditions: Homo sapiens, NOS-1;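 further: growth inhibition of the human NOS-1 cell line, read out with a cell viability assay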
Description: SANGER: Inhibition of human NOS-1 cell growth in a cell viability assay.

HL-60 = format: functional, cell-based, Homo sapiens; conditions: Homo sapiens, HL-60;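 further: growth inhibition of human HL-60 cells, read out with a cell viability assay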
Description: SANGER: Inhibition of human HL-60 cell growth in a cell viability assay.

SNB-75 = format: functional, cell-based, Homo sapiens; conditions: Homo sapiens, SNB-75;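 further: cell viability assay measuring growth inhibition of human SNB-75 cells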
Description: SANGER: Inhibition of human SNB75 cell growth in a cell viability assay.

TE-8 = format: functional, cell-based, Homo sapiens; conditions: Homo sapiens, TE-8;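 further: growth inhibition of TE-8 cells, measured with a cell viability readout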
Description: SANGER: Inhibition of human TE-8 cell growth in a cell viability assay.

RCC10RGB = format: functional, cell-based, Homo sapiens; conditions: Homo sapiens, RCC10RGB;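 further: growth inhibition of human RCC10RGB cells, read out by a cell viability assay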
Description: SANGER: Inhibition of human RCC10RGB cell growth in a cell viability assay.

D-392MG = format: functional, cell-based, Homo sapiens; conditions: Homo sapiens, D-392MG
TGBC24TKB = format: functional, cell-based, Homo sapiens; conditions: Homo sapiens, TGBC24TKB;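 further: growth inhibition of human TGBC24TKB cells, read out with a cell viability assay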
Description: SANGER: Inhibition of human TGBC24TKB cell growth in a cell viability assay.

NCI-H446 = format: functional, cell-based, Homo sapiens; conditions: Homo sapiens, NCI-H446;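 further: growth inhibition of NCI-H446 cells determined by a cell viability assay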
Description: SANGER: Inhibition of human NCI-H446 cell growth in a cell viability assay.

MOLT-4 = format: functional, cell-based, Homo sapiens; conditions: Homo sapiens, MOLT-4;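 further: growth inhibition of MOLT-4 cells, determined with a cell viability readout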
Description: SANGER: Inhibition of human MOLT-4 cell growth in a cell viability assay.

Mo = format: functional, cell-based, Homo sapiens; conditions: Homo sapiens, Mo
Description: SANGER: Inhibition of human Mo-T cell growth in a cell viability assay.

ES5 = format: functional, cell-based, Homo sapiens; conditions: Homo sapiens, ES5;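 further: growth inhibition of human ES5 cells, read out by a cell viability assay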
Description: SANGER: Inhibition of human ES5 cell growth in a cell viability assay.

ES7 = format: functional, cell-based, Homo sapiens; conditions: Homo sapiens, ES7;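 further: growth inhibition of cultured human ES7 cells, read out as cell viability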
Description: SANGER: Inhibition of human ES7 cell growth in a cell viability assay.

P30-OHK = format: functional, cell-based, Homo sapiens; conditions: Homo sapiens, P30-OHK;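 further: growth inhibition of the P30-OHK cell line, read out with a cell viability assay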
Description: SANGER: Inhibition of human P30-OHK cell growth in a cell viability assay.

IST-SL1 = format: functional, cell-based, Homo sapiens; conditions: Homo sapiens, IST-SL1;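 further: growth inhibition of human IST-SL1 cells, read out with a cell viability assay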
Description: SANGER: Inhibition of human IST-SL1 cell growth in a cell viability assay.

NB69 = format: functional, cell-based, Homo sapiens; conditions: Homo sapiens, NB69;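 further: growth inhibition of NB69 cells, determined by a cell viability assay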
Description: SANGER: Inhibition of human NB69 cell growth in a cell viability assay.

EW-11 = format: functional, cell-based, Homo sapiens; conditions: Homo sapiens, EW-11;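 further: growth inhibition of human EW-11 cells, measured with a cell viability assay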
Description: SANGER: Inhibition of human EW-11 cell growth in a cell viability assay.

MFM-223 = format: functional, cell-based, Homo sapiens; conditions: Homo sapiens, MFM-223
Description: SANGER: Inhibition of human MFM-223 cell growth in a cell viability assay.

MHH-PREB-1 = format: functional, cell-based, Homo sapiens; conditions: Homo sapiens, MHH-PREB-1;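 further: cell viability assay measuring inhibition of proliferation of human MHH-PREB-1 cells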
Description: SANGER: Inhibition of human MHH-PREB-1 cell growth in a cell viability assay.

NB6 = format: functional, cell-based, Homo sapiens; conditions: Homo sapiens, NB6
Description: SANGER: Inhibition of human NB6 cell growth in a cell viability assay.

BV-173 = format: functional, cell-based, Homo sapiens; conditions: Homo sapiens, BV-173
Description: SANGER: Inhibition of human BV-173 cell growth in a cell viability assay.

LB2241-RCC = format: functional, cell-based, Homo sapiens; conditions: Homo sapiens, LB2241-RCC;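 further: cell viability assay measuring how strongly the cultured human renal carcinoma line is prevented from growing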
Description: SANGER: Inhibition of human LB2241-RCC cell growth in a cell viability assay.

EKVX = format: functional, cell-based, Homo sapiens; conditions: Homo sapiens, EKVX;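 further: growth inhibition of human EKVX cells, read out with a cell viability assay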
Description: SANGER: Inhibition of human EKVX cell growth in a cell viability assay.

DJM-1 = format: functional, cell-based, Homo sapiens; conditions: Homo sapiens, DJM-1;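 further: growth inhibition of human DJM-1 cells, read out by a cell viability assay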
Description: SANGER: Inhibition of human DJM-1 cell growth in a cell viability assay.

NKM-1 = format: functional, cell-based, Homo sapiens; conditions: Homo sapiens, NKM-1;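 further: growth inhibition of NKM-1 cells, read out with a cell viability assay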
Description: SANGER: Inhibition of human NKM-1 cell growth in a cell viability assay.

TE-5 = format: functional, cell-based, Homo sapiens; conditions: Homo sapiens, TE-5;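 further: inhibition of cell growth, read out by a cell viability assay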
Description: SANGER: Inhibition of human TE-5 cell growth in a cell viability assay.

HC-1 = format: functional, cell-based, Homo sapiens; conditions: Homo sapiens, HC-1;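 further: growth inhibition of HC-1 cells measured by a cell viability assay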
Description: SANGER: Inhibition of human HC-1 cell growth in a cell viability assay.

LB771-HNC = format: functional, cell-based, Homo sapiens; conditions: Homo sapiens, LB771-HNC;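 further: growth inhibition of LB771-HNC human cells, read out with a cell viability assay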
Description: SANGER: Inhibition of human LB771-HNC cell growth in a cell viability assay.

HAL-01 = format: functional, cell-based, Homo sapiens; conditions: Homo sapiens, HAL-01;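 further: growth inhibition of human HAL-01 cells, read out with a cell viability assay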
Description: SANGER: Inhibition of human HAL-01 cell growth in a cell viability assay.

A4-Fuk = format: functional, cell-based, Homo sapiens; conditions: Homo sapiens, A4-Fuk;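 further: growth inhibition of A4-Fuk cells, read out by a cell viability assay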
Description: SANGER: Inhibition of human A4-Fuk cell growth in a cell viability assay.

HD-MY-Z = format: functional, cell-based, Homo sapiens; conditions: Homo sapiens, HD-MY-Z;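 further: growth inhibition of HD-MY-Z cells, read out with a cell viability assay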
Description: SANGER: Inhibition of human HD-MY-Z cell growth in a cell viability assay.

NCI-H1838 = format: functional, cell-based, Homo sapiens; conditions: Homo sapiens, NCI-H1838;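 further: growth inhibition of NCI-H1838 cells, determined with a cell viability readout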
Description: SANGER: Inhibition of human NCI-H1838 cell growth in a cell viability assay.

SW872 = format: functional, cell-based, Homo sapiens; conditions: Homo sapiens, SW872;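 further: growth inhibition of SW872 cells, read out by a viability assay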
Description: SANGER: Inhibition of human SW872 cell growth in a cell viability assay.

MZ7-mel = format: functional, cell-based, Homo sapiens; conditions: Homo sapiens, MZ7-mel;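 further: growth inhibition of human MZ7-mel cells, measured by a cell viability assay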
Description: SANGER: Inhibition of human MZ7-mel cell growth in a cell viability assay.

MOLT-16 = format: functional, cell-based, Homo sapiens; conditions: Homo sapiens, MOLT-16;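 further: growth inhibition of human MOLT-16 cells, read out with a cell viability assay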
Description: SANGER: Inhibition of human MOLT-16 cell growth in a cell viability assay.

MEG-01 = format: functional, cell-based, Homo sapiens; conditions: Homo sapiens, MEG-01;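 further: growth inhibition of MEG-01 cells, read out by a cell viability assay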
Description: SANGER: Inhibition of human MEG-01 cell growth in a cell viability assay.

ETK-1 = format: functional, cell-based, Homo sapiens; conditions: Homo sapiens, ETK-1;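 further: growth inhibition of human ETK-1 cells, read out with a cell viability assay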
Description: SANGER: Inhibition of human ETK-1 cell growth in a cell viability assay.

LB831-BLC = format: functional, cell-based, Homo sapiens; conditions: Homo sapiens, LB831-BLC;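 further: growth inhibition of LB831-BLC cells, read out with a cell viability assay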
Description: SANGER: Inhibition of human LB831-BLC cell growth in a cell viability assay.

8-MG-BA = format: functional, cell-based, Homo sapiens; conditions: Homo sapiens, 8-MG-BA;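 further: growth inhibition of 8-MG-BA cells, read out with a cell viability assay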
Description: SANGER: Inhibition of human 8-MG-BA cell growth in a cell viability assay.

SW 962 = format: functional, cell-based, Homo sapiens; conditions: Homo sapiens, SW 962;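 further: growth inhibition of human SW962 cells, read out by a cell viability assay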
Description: SANGER: Inhibition of human SW962 cell growth in a cell viability assay.

SH-4 = format: functional, cell-based, Homo sapiens; conditions: Homo sapiens, SH-4;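 further: growth inhibition of SH-4 cells, read out with a cell viability assay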
Description: SANGER: Inhibition of human SH-4 cell growth in a cell viability assay.

697 = format: functional, cell-based, Homo sapiens; conditions: Homo sapiens
Description: SANGER: Inhibition of human 697 cell growth in a cell viability assay.

LS-1034 = format: functional, cell-based, Homo sapiens; conditions: Homo sapiens, LS-1034
Description: SANGER: Inhibition of human LS-1034 cell growth in a cell viability assay.

SF-268 = format: functional, cell-based, Homo sapiens; conditions: Homo sapiens, SF-268;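 further: growth inhibition of SF-268 cells determined with a cell viability assay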
Description: SANGER: Inhibition of human SF268 cell growth in a cell viability assay.

ES4 = format: functional, cell-based, Homo sapiens; conditions: Homo sapiens, ES4;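 further: growth inhibition of human ES4 cells, read out by a cell viability assay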
Description: SANGER: Inhibition of human ES4 cell growth in a cell viability assay.

SW982 = format: functional, cell-based, Homo sapiens; conditions: Homo sapiens, SW982;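 further: growth inhibition of SW982 cells, read out with a cell viability assay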
Description: SANGER: Inhibition of human SW982 cell growth in a cell viability assay.

L-363 = format: functional, cell-based, Homo sapiens; conditions: Homo sapiens, L-363
Description: SANGER: Inhibition of human L-363 cell growth in a cell viability assay.

NB12 = format: functional, cell-based, Homo sapiens; conditions: Homo sapiens, NB12;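 further: growth inhibition of human NB12 cells, read out by a cell viability assay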
Description: SANGER: Inhibition of human NB12 cell growth in a cell viability assay.

U-87 MG = format: functional, cell-based, Homo sapiens, U-87MG ATCC; conditions: Homo sapiens, U-87 MG;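 further: growth inhibition of the cells measured with a viability assay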
Description: SANGER: Inhibition of human U-87-MG cell growth in a cell viability assay.

SCC-15 = format: functional, cell-based, Homo sapiens; conditions: Homo sapiens, SCC-15;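 further: growth inhibition of SCC-15 cells, read out with a cell viability assay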
Description: SANGER: Inhibition of human SCC-15 cell growth in a cell viability assay.

GAK = format: functional, cell-based, Homo sapiens; conditions: Homo sapiens, GAK;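 further: cell growth inhibition read out by a cell viability assay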
Description: SANGER: Inhibition of human GAK cell growth in a cell viability assay.

Measured: IC50

Oc1ccc2ccccc2c1SSc1c(O)ccc2ccccc12
25.8 µM: HAL-01
14 µM: MOLT-4
28 µM: LB2241-RCC
7.84 µM: SW872
3.47 µM: MHH-PREB-1
26.3 µM: ES4
3.84 µM: NB6
12.3 µM: ES5
6.76 µM: NB69
11.7 µM: NOS-1
8.85 µM: HL-60
> 32 µM: SNB-75 | TE-8 | RCC10RGB | D-392MG | TGBC24TKB | NCI-H446 | Mo | ES7 | IST-SL1 | EW-11 | MFM-223 | BV-173 | EKVX | DJM-1 | NKM-1 | TE-5 | LB771-HNC | HD-MY-Z | NCI-H1838 | MZ7-mel | MOLT-16 | MEG-01 | ETK-1 | LB831-BLC | 8-MG-BA | SW 962 | SH-4 | 697 | LS-1034 | SF-268 | SW982 | L-363 | NB12 | U-87 MG | SCC-15 | GAK
9.44 µM: A4-Fuk
9.87 µM: P30-OHK
8.07 µM: HC-1
